Test results taken from patent US9139532B2, “Pyrazolyl guanidine F1F0-atpase inhibitors and therapeutic uses thereof” (Lycera Corporation, priority 2010, dated 2015).
Like-named read-outs stand apart in the source and are kept apart here.

How the values were obtained:
F1F0-ATPase = biological target: T1, F1F0-ATPase (Bos taurus, UniProt P13621); assay: Inhibition of F1F0-ATPase activity in synthesizing ATP; format: biochemical; conditions: inhibition of ATP synthesis by F1F0-ATPase; read-out: ATP Syn IC50
T1 construct: from tissue

Ramos cells = assay: Cytotoxicity in Ramos cells; format: cell-based; conditions: cytotoxicity in Ramos cells, read-out: Ramos Cell EC50

Structure (SMILES)	IC50 (F1F0-ATPase)	EC50 (Ramos cells; Homo sapiens)	EC50 (Ramos cells)
CC(C)CN/C(=N/C(=O)c1ccc(F)c(F)c1)Nc1cc(-c2ccc(CO)cc2)n[nH]1 [Compound A-570, (Z)-3,4-Difluoro-N-(((3-(4-(hydroxymethyl)phenyl)-1H-pyrazol-5-yl)amino)(isobutylamino)methylene)benzamide]	> 10 µM	> 10 µM	
CNC(=O)c1cc(NC(=NC(=O)c2ccc(C(F)(F)F)cc2)Nc2ccc(F)cc2Cl)[nH]n1 [Compound A-337]	> 10 µM	> 10 µM	
C[C@@H](CO)N/C(=N/C(=O)c1ccc(F)cc1)Nc1cc(-c2ccc(F)cc2)n[nH]1 [Compound A-391]	> 10 µM		> 10 µM
O=C(N=C(Nc1cc(-c2ccc(F)cc2)n[nH]1)NC1CCOCC1)c1ccc(C(F)(F)F)cc1 [Compound A-465]	> 10 µM	> 10 µM	
O=C(/N=C1\Nc2cc(-c3ccc(F)cc3)nn2C[C@@H]2CCCN12)c1ccc(F)cc1 [Compound A-569, (S,E)-4-fluoro-N-(2-(4-fluorophenyl)-8,9,9a,10-tetrahydro-4H-pyrazolo[1,5-a]pyrrolo[1,2-e][1,3,5]triazepin-5(7H)-ylidene)benzamide]	> 10 µM	> 10 µM	
Cc1cc(NC(=NC(=O)c2ccc(Cl)c(F)c2)NCCC(F)(F)F)[nH]n1 [Compound A-179]	> 10 µM	> 10 µM	
CCC(C)(C)N/C(=N/C(=O)c1cccc(C(F)(F)F)c1)Nc1cc(C(F)(F)F)[nH]n1 [Compound A-78]	< 10 µM	< 10 µM	
CC(C)OCCCNC(=NC(=O)c1ccc(Cl)c(F)c1)Nc1cc(-c2cc(F)cc(F)c2)n[nH]1 [Compound A-344]	< 10 µM	< 10 µM	
O=C(/N=C(/NCc1ccc(F)c(Cl)c1)Nc1cc(C(F)(F)F)[nH]n1)c1ccc(Cl)c(F)c1 [Compound A-3]	< 10 µM	< 10 µM	
CC(C)N/C(=N/C(=O)c1cccc(F)c1)Nc1cc(-c2ccc(Cl)cc2)n[nH]1 [Compound A-386]	< 10 µM		< 10 µM
COc1ccc(C(=O)/N=C(/NCC(C)C)Nc2cc(-c3ccc(F)cc3)[nH]n2)cn1 [Compound A-182]	< 10 µM		< 10 µM
CC(C)(C)CN/C(=N/C(=O)c1ccc(Cl)cc1)Nc1cc(C(F)(F)F)n[nH]1 [Compound A-42]	< 10 µM	< 10 µM	
CC(C)CNC(=NC(=O)c1cccc(C#N)c1)Nc1cc(-c2ccc(Cl)cc2)n[nH]1 [Compound A-303]	< 10 µM	< 10 µM	
CC(C)(C)N/C(=N/C(=O)c1cccc(S(C)(=O)=O)c1)Nc1cc(-c2ccc(F)cc2)n[nH]1 [Compound A-499]	< 10 µM		< 10 µM
O=C(/N=C(/NCC1CCO1)Nc1cc(-c2ccc(F)cc2)n[nH]1)c1ccc(F)c(F)c1 (centres unmarked) [Compound A-266]	< 10 µM		< 10 µM
COc1cccc(C(=O)/N=C(\Nc2cc(-c3ccc(F)cc3)[nH]n2)NC(C)C)c1 [Compound A-524]	< 10 µM		< 10 µM
CC(C)(C)N/C(=N/C(=O)c1ccc(O)cc1)Nc1cc(-c2ccc(F)cc2)n[nH]1 [Compound A-509]	< 10 µM		< 10 µM
CCC(C)N/C(=N/C(=O)c1ccc(F)cc1)Nc1cc(-c2ccc(F)cc2)n[nH]1 (centres unmarked) [Compound A-206]	< 10 µM	< 10 µM	
Cc1cc(N/C(=N\C(=O)c2ccc(C(F)(F)F)cc2)NC2CCCC2)n[nH]1 [Compound A-185]	< 10 µM		< 10 µM
O=C(/N=C(/NCc1ccc(F)c(Cl)c1)Nc1cc(C(F)(F)F)[nH]n1)c1ccc(Cl)cc1 [Compound A-31]	< 10 µM	< 10 µM	
COCC(C)NC(=NC(=O)c1ccc(F)c(F)c1)Nc1cc(-c2ccc(Cl)cc2)n[nH]1 (centres unmarked) [Compound A-376]	< 10 µM	< 10 µM	
CCOCCCN/C(=N/C(=O)c1ccc(F)c(F)c1)Nc1[nH]nc(-c2ccc(Cl)cc2)c1F [Compound A-160]	< 10 µM		> 10 µM
COC(=O)c1cccc(C(=O)/N=C(\Nc2cc(-c3ccc(F)cc3)n[nH]2)NC(C)(C)C)c1 [Compound A-342]	< 10 µM		< 10 µM
CC(C)(C)N/C(=N/C(=O)c1ccc(N2CCOCC2)nc1)Nc1cc(-c2ccc(F)cc2)[nH]n1 [Compound A-164]	< 10 µM		< 10 µM
O=C(/N=C(\Nc1cc(C(F)(F)F)[nH]n1)NC1CCCCCC1)c1ccc(C(F)(F)F)cc1 [Compound A-14]	< 10 µM	< 10 µM	
Cc1cc(N/C(=N\C(=O)c2ccc(C(F)(F)F)cc2)NCCC(F)(F)F)n[nH]1 [Compound A-183]	< 10 µM		< 10 µM
O=C(/N=C(\Nc1cc(-c2cc(F)cc(Cl)c2)n[nH]1)NC1CCC1)c1ccc(F)c(F)c1 [Compound A-284]	< 10 µM		< 10 µM

Continued, in another order:

IC50 (F1F0-ATPase)	Structure (SMILES)	EC50 (Ramos cells; Homo sapiens)	EC50 (Ramos cells)
< 10 µM	O=C(/N=C(/Nc1cc(F)cc(Cl)c1)Nc1cc(-c2ccc(F)cc2)[nH]n1)c1ccc(C(F)(F)F)cc1 [Compound A-154]		< 10 µM
< 10 µM	O=C(/N=C(\Nc1cc(-c2cc(F)cc(F)c2)n[nH]1)NC1CCCC1)c1ccc(C(F)(F)F)cc1 [Compound A-291]		< 10 µM
< 10 µM	O=C(/N=C(\Nc1cc(-c2ccc(F)cc2)[nH]n1)NC1CC1)c1ccc(F)cc1 [Compound A-193]		> 10 µM
< 10 µM	O=C(/N=C(\Nc1cc(C(F)(F)F)[nH]n1)NC1CCCC1)c1ccccc1 [Compound A-545]		< 10 µM
< 10 µM	CC(C)CN/C(=N/C(=O)c1ccc(Cl)c(F)c1)Nc1cc(-c2cc(F)cc(F)c2)n[nH]1 [Compound A-352]		< 10 µM
< 10 µM	CC(C)(C)NC(=NC(=O)c1ccc(Cl)c(F)c1)Nc1cc(-c2ccc(Cl)cc2)n[nH]1 [Compound A-469]	< 10 µM	
< 10 µM	CC(C)(C)N/C(=N/C(=O)c1ccc(Cl)c(F)c1)Nc1cc(C(F)F)[nH]n1 [Compound A-65]	< 10 µM	
< 10 µM	O=C(/N=C(/NCc1ccc(Cl)c(F)c1)Nc1cc(C(F)(F)F)[nH]n1)c1ccc(C(F)(F)F)cc1 [Compound A-20]	< 10 µM	
< 10 µM	CC(C)NC(=NC(=O)c1ccc(F)cc1)Nc1cc(-c2ccc(Cl)cc2)n[nH]1 [Compound A-255]	< 10 µM	
< 10 µM	CC(C)(C)N/C(=N/C(=O)c1ccc(C#N)cc1)Nc1cc(C(F)(F)F)[nH]n1 [Compound A-71]	< 10 µM	
< 10 µM	O=C(/N=C(\Nc1cc(-c2cccc(C(F)(F)F)c2)[nH]n1)NC1CCCC1)c1ccc(C(F)(F)F)cc1 [Compound A-421]		< 10 µM
< 10 µM	CC(C)(C)NC(=NC(=O)c1ccc(C(F)(F)F)cc1)Nc1cc(-c2ccccc2)[nH]n1 [Compound A-153]	< 10 µM	
< 10 µM	O=C(N=C(NCC1CCO1)Nc1cc(-c2ccc(Cl)cc2)n[nH]1)c1ccc(F)c(F)c1 (centres unmarked) [Compound A-223]	< 10 µM	
< 10 µM	CC(C)NC(=NC(=O)c1cccc(F)c1)Nc1cc(-c2cc(F)cc(F)c2)n[nH]1 [Compound A-370]	< 10 µM	
< 10 µM	CCOC[C@H](C)N/C(=N/C(=O)c1ccc(Cl)c(F)c1)Nc1cc(C)[nH]n1 [Compound A-180]		> 10 µM
< 10 µM	COc1ccc(-c2cc(N/C(=N\C(=O)c3ccc(C(F)(F)F)cc3)NC(C)(C)C)[nH]n2)cc1F [Compound A-575]		< 10 µM

IC50 (F1F0-ATPase)	Structure (SMILES)	EC50 (Ramos cells; Homo sapiens)	EC50 (Ramos cells)
< 10 µM	CC(N/C(=N\C(=O)c1ccc(C(F)(F)F)cc1)Nc1cc(C(F)(F)F)n[nH]1)c1cccc(Cl)c1 (centres unmarked) [Compound A-89]	< 10 µM	
< 10 µM	COCC(C)NC(=NC(=O)c1cccc(F)c1)Nc1cc(-c2ccc(Cl)cc2)n[nH]1 (centres unmarked) [Compound A-384]		< 10 µM
< 10 µM	O=C(/N=c1\[nH]c2cc(C(F)(F)F)nn2c(=O)n1Cc1ccc(F)cc1Cl)c1ccc(F)c(F)c1 [Compound A-567, (E)-N-(3-(2-chloro-4-fluorobenzyl)-4-oxo-7-(trifluoromethyl)-3,4-dihydropyrazolo[1,5-a][1,3,5]triazin-2(1H)-ylidene)-3,4-difluorobenzamide]	< 10 µM	
< 10 µM	COc1ccc(-c2cc(N/C(=N\C(=O)c3ccc(Cl)c(F)c3)NCc3ccc(F)cc3Cl)[nH]n2)cc1 [Compound A-471]		> 10 µM
< 10 µM	O=C(N=C(Nc1cc(-c2ccc(F)cc2)n[nH]1)NC1CCC1)c1ccc(Cl)cc1 [Compound A-264]	< 10 µM	
< 10 µM	COc1ccc(C(=O)/N=C(\Nc2cc(-c3ccc(F)cc3)[nH]n2)NC(C)C)cc1 [Compound A-523]		> 10 µM
< 10 µM	Cc1ccc(-c2cc(N/C(=N\C(=O)c3ccc(C(F)(F)F)cc3)NC3CCCC3)[nH]n2)cc1F [Compound A-326]		> 10 µM
< 10 µM	CC(C)(C)N/C(=N/C(=O)c1ccc(Cl)cc1)Nc1n[nH]cc1C#N [Compound A-37]	> 10 µM	
< 10 µM	CC(C)(C)N/C(=N/C(=O)c1ccc(C(F)(F)F)nc1)Nc1cc(C(F)(F)F)[nH]n1 [Compound A-79]	< 10 µM	
< 10 µM	Cc1ccccc1CNC(=NC(=O)c1ccc(Cl)cc1)Nc1cc(-c2ccc(F)cc2)n[nH]1 [Compound A-401]	< 10 µM	
< 10 µM	CC1(C)OCC(CN/C(=N/C(=O)c2ccc(F)cc2)Nc2cc(C(F)(F)F)[nH]n2)O1 (centres unmarked) [Compound A-412]		> 10 µM
< 10 µM	CC(C)N/C(=N/C(=O)c1ccc(Cl)c(F)c1)Nc1cc(-c2ccc(F)cc2)n[nH]1 [Compound A-216]		< 10 µM
< 10 µM	O=C(/N=C(/NCc1ccc(F)cc1Cl)Nc1cc(-c2ccc(F)cc2)n[nH]1)c1ccc(Cl)cc1 [Compound A-454]		< 10 µM
< 10 µM	O=C(/N=C(/Nc1cc(C(F)(F)F)n[nH]1)NC1CCOC1)c1ccc(F)c(F)c1 (centres unmarked) [Compound A-103]	< 10 µM	
< 10 µM	CC(C)(C)N/C(=N/C(=O)c1cccc(C#N)c1)Nc1cc(-c2ccc(Cl)cc2)n[nH]1 [Compound A-308]		< 10 µM
